{"source": "patent US7507727B2", "about": "“Substituted quinobenzoxazine analogs and methods of using thereof” (Cylene Pharmaceuticals, Inc., priority 2003, dated 2009)", "test_system": "Salmonella typhimurium (TA97a, TA98, TA100, TA102, TA1535)", "settings": "for FI / TA100 colony count (Rep 1-3) / TA100 colony count, Mean: dose range", "description": "This Mutagenicity Assessment (Ames Assay) evaluated the potential of the test article extracts to induce histidine (his) reversion in S. typhimurium (his− to his+) or tryptophan (trp) reversion in E. coli (trp− to trp+) caused by base changes or frameshift mutations in the genome of tester organisms.\nThis plate incorporation assay was conducted with five strains of Salmonella typhimurium (TA97a, TA98, TA100, TA102, and TA1535) and one strain of Escherichia coli (WP2-uvrA^−) in the presence and absence of an exogenous mammalian activation system (S9). The test article was dissolved in 5% dextrose. A series of dilutions were then prepared in saline just prior to testing. A Range Finding Study was conducted for this assay to determine the appropriate doses for definitive mutagenicity assessment.\nA stock solution of test article was prepared at 20.0 mg/mL as follows: 1.0 g test article was added to 15.0 mL of 0.1 HCl for 1 minute. The test article was stirred for 15 minutes at room temperature. Next 33.0 mL of deionized water was added and allowed to stir for 30 minutes. […] Lower doses were prepared by dilution in 5% dextrose from this stock immediately prior to use. To minimize any change of degradation, the test article solutions were kept on ice after preparation and until just prior to dosing procedures. The test article was administered in vitro, through a solvent compatible with the test system.\nThis assay has historically been used to detect mutation in a gene of a histidine requiring strain to produce a histidine independent strain or concordantly, to detect mutation in a gene of a tryptophan requiring strain to produce a tryptophan independent strain.\nS. typhimurium strain TA1535 and E. coli strain Wp2-uvrA^− were received from American Type Culture Collection, Manassas, Va. […] All working stocks of test strains will be confirmed for genotypic markers and acceptable reversion rates.\nMaster plates of the tester strains were prepared from frozen working stocks. To create working cultures for each bacterial strain used in the assay, a single colony was transferred from the master plate into Oxoid nutrient broth and incubated, with shaking, at 37±2° C. until an optical density (at 650 nm) of 0.6-1.6 was reached. This overnight culture was used for the mutagenicity test and for genotypic confirmation. Genotype tests were performed.\nFor both the dose range and mutagenicity test, a top agar consisting of 0.6% Difco agar in 0.5% NaCl was melted and a solution of 0.5 mM L-histidine/0.5 mM biotin or 0.5 mM L-tryptophan was added to the melted top agar at a ratio of 10 mL per 100 mL agar, as required. The supplemented agar was aliquotted, 2 mL per tube and held at 45-47° C. To prepare the top agar for treatment, 0.1 mL of the test article or control, 0.1 mL of the bacterial culture and 0.5 mL of phosphate buffered saline were added to the molten agar. […] Metabolic activation was provided by adding 0.5 mL of the S9 mix in place of the PBS. […] All plates were counted using an automatic image analysis system. Negative control and test article treated plates were also examined for the presence of a bacterial lawn.\nThe in vitro metabolic activation system used in this assay was comprised of Sprague Dawley rat liver enzymes and a cofactor pool. […] Immediately prior to use, the S9 was thawed and mixed with a cofactor pool to contain 5% S9, 5 mM glucose 6-phosphate, 4 mM β-nicotine-adenine dinucleotide phosphate, 8 mM MgCl2 and 33 mM KCl in a 200 mM phosphate buffer at pH 7.4. The S9 was purchased from Moltox (Boone, N.C.) and maintained frozen at less than −70° C.\nFor the definitive assay, three dose levels were chosen ([…], and 5.0 mg/mL). This was equivalent to 2.0, 1.0, and 0.5 mg/plate. All treatments, including negative and positive control, were plated in triplicate against test strains TA97a, TA98, TA100, TA102, TA1535, and WP2-uvrA^− in the presence and absence of metabolic activation.", "key": {"[1]": {"settings": "TA100, with S9 activation, 0.125 mg/plate"}, "[2]": {"settings": "TA100, with S9 activation, 0.25 mg/plate"}, "[3]": {"settings": "TA100, with S9 activation, 0.5 mg/plate"}, "[4]": {"settings": "TA100, with S9 activation, 1.0 mg/plate"}, "[5]": {"settings": "TA100, with S9 activation, 2.0 mg/plate"}, "[6]": {"settings": "TA100, without S9 activation, 0.125 mg/plate"}, "[7]": {"settings": "TA100, without S9 activation, 0.25 mg/plate"}, "[8]": {"settings": "TA100, without S9 activation, 0.5 mg/plate"}, "[9]": {"settings": "TA100, without S9 activation, 1.0 mg/plate"}, "[10]": {"settings": "TA100, without S9 activation, 2.0 mg/plate"}}, "note": "Values joined by “and” are separate entries in the source; they are usually repeats but may differ in a detail not shown here. Identical values can stand only once. Like-named read-outs stand apart in the source and are kept apart here."}
{"compound": "CN1CCCC1CCNC(=O)c1cn2c3c(c(N4CCC(c5cnccn5)C4)c(F)cc3c1=O)Oc1cc3ccccc3cc1-2", "note": "(stereo not shown) [CX-3543]", "values": [{"measurement": "mutagenicity (reversion rates)", "setting": "S. typhimurium, with and without S9", "result": "non-mutagenic"}, {"measurement": "FI", "setting": "[1]", "result": 1.5}, {"measurement": "TA100 colony count (Rep 1-3)", "setting": "[1]", "result": "175 and 177"}, {"measurement": "TA100 colony count, Mean", "setting": "[1]", "result": 175.7}, {"measurement": "FI", "setting": "[2]", "result": 1.5}, {"measurement": "TA100 colony count (Rep 1-3)", "setting": "[2]", "result": "185 and 177 and 189"}, {"measurement": "TA100 colony count, Mean", "setting": "[2]", "result": 183.7}, {"measurement": "FI", "setting": "[3]", "result": 1.6}, {"measurement": "TA100 colony count (Rep 1-3)", "setting": "[3]", "result": "182 and 190 and 193"}, {"measurement": "TA100 colony count, Mean", "setting": "[3]", "result": 188.3}, {"measurement": "FI", "setting": "[4]", "result": 1.4}, {"measurement": "TA100 colony count (Rep 1-3)", "setting": "[4]", "result": "175 and 147 and 168"}, {"measurement": "TA100 colony count, Mean", "setting": "[4]", "result": 163.3}, {"measurement": "FI", "setting": "[5]", "result": 1.1}, {"measurement": "TA100 colony count (Rep 1-3)", "setting": "[5]", "result": "111 and 131 and 137"}, {"measurement": "TA100 colony count, Mean", "setting": "[5]", "result": 126.3}, {"measurement": "FI", "setting": "[6]", "result": 1.1}, {"measurement": "TA100 colony count (Rep 1-3)", "setting": "[6]", "result": "153 and 144 and 135"}, {"measurement": "TA100 colony count, Mean", "setting": "[6]", "result": 144.0}, {"measurement": "FI", "setting": "[7]", "result": 1.1}, {"measurement": "TA100 colony count (Rep 1-3)", "setting": "[7]", "result": "154 and 148 and 146"}, {"measurement": "TA100 colony count, Mean", "setting": "[7]", "result": 149.3}, {"measurement": "FI", "setting": "[8]", "result": 1.1}, {"measurement": "TA100 colony count (Rep 1-3)", "setting": "[8]", "result": "161 and 154 and 137"}, {"measurement": "TA100 colony count, Mean", "setting": "[8]", "result": 150.7}, {"measurement": "FI", "setting": "[9]", "result": 1.0}, {"measurement": "TA100 colony count (Rep 1-3)", "setting": "[9]", "result": "147 and 120 and 134"}, {"measurement": "TA100 colony count, Mean", "setting": "[9]", "result": 133.7}, {"measurement": "FI", "setting": "[10]", "result": 0.9}, {"measurement": "TA100 colony count (Rep 1-3)", "setting": "[10]", "result": "126 and 117 and 122"}, {"measurement": "TA100 colony count, Mean", "setting": "[10]", "result": 121.7}]}
